For 35 compounds, IC50 results are on record in patent publication US20240270751A1, “Pyrazolopyridinone Compounds” (BeiGene Ltd., priority 2021, published 2024).

For one assay, the target named is DGKζ (Homo sapiens (Human), UniProt Q13574). The assay can be described thus: Biochemical DGK IC50 assay, DGKζ ADP-Glo assay. As to conditions: 0.5 nM enzyme, 140 μM ATP, 80 μM DAG; read-out: DGKζ ADP-Glo assay IC50. The method, then:
(§1) Enzymatic reactions of DGKζ, DGKα and DGKδ were performed using ADP-Glo assay with lipid micelle substrate. […] Full length DGKα (D21-10BG, SignalChem) and full length DGKδ (D23-10G, SignalChem) were purchased. Lipid micelle was prepared by dissolving DAG (Sigma, 317505-10MG) and PS (Sigma, P7769-100MG) with chloroform which was furtherly removed by rotary evaporation. The resulted product was resuspended in buffer containing 25 mM HEPES pH 7.0, 0.5 mM EDTA and 160 mM Octyl β-D glucopyranoside by vigorous mixing and ultrasonic (IID, Scientz).
(§2) The ranges of compounds final concentration were 1.55˜10000 nM or 23.3˜150000 nM. 3 μL 2× enzyme solution was added to wells.
Human His-TEV-DGK-zeta-pFastBac1 and human baculovirus samples was generated using the Bac-to-Bac baculovirus expression system (Invitrogen) according to the manufacturer's protocol. The DNA used for expression of DGK-zeta, have SEQ ID Nos: 1. Baculovirus amplification was achieved using infected SF9 cells at 1:2000 virus/cells ratios, and grown for 96 hours at 27° C. post-transfected.
The expression scaled up for each protein was carried out in the […] from CORNING. 4 L of 3×10^6 cells/mL Sf9 cells (Expression System, Invitrogen) grown in SF900™ II SFM insect medium (Expression System) was infected with virus stock at 1:200 virus/cells ratio, and grown for 48 hours at 27° C. post-transfection. The infected cell culture was harvested by centrifugation at 6000 rpm for 15 min 4° C. in a SORVALL LYNX6000 centrifuge. The cell pellets were stored at −80° C.
Full length human DGKζ produced as described above, was purified from Sf9 baculovirus-infected insect cell paste. The cells were lysed using sonication method, and the lysates were clarified by centrifugation.

The target of a further assay is DGKα (Homo sapiens (Human), UniProt P23743). The assay can be described thus: Biochemical DGK IC50 assay, DGKα ADP-Glo assay. The settings on record: 7.5 nM enzyme, 140 μM ATP, 80 μM DAG. The protocol: as §1, §2
DGKα, sequence (P23743 whole entry): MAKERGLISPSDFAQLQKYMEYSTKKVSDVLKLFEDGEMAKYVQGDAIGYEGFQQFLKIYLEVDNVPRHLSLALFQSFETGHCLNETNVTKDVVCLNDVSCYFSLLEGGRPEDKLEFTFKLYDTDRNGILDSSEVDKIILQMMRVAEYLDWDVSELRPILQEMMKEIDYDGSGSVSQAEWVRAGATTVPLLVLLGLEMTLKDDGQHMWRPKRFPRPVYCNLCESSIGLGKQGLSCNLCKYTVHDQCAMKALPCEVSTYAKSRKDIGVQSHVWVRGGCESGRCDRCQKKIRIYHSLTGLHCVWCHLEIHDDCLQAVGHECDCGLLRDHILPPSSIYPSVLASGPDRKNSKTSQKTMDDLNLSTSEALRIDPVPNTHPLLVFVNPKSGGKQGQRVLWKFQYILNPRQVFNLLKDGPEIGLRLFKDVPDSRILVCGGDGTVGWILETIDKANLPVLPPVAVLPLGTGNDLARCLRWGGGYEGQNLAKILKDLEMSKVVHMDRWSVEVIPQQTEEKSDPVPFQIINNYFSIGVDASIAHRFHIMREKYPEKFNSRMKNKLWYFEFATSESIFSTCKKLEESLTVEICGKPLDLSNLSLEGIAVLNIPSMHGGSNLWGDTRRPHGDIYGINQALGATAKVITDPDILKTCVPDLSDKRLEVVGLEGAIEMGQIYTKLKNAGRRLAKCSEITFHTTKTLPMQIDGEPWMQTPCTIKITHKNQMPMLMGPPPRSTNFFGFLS
(In ADP-Glo the light output rises with the ADP produced.)

Where only a bound is given, the exact number is not on record here.

In general, IC50 refers to the concentration that inhibits the measured activity by half.

DGKζ, sequence (Q13574 other isoform, or with tags, fused parts or gaps): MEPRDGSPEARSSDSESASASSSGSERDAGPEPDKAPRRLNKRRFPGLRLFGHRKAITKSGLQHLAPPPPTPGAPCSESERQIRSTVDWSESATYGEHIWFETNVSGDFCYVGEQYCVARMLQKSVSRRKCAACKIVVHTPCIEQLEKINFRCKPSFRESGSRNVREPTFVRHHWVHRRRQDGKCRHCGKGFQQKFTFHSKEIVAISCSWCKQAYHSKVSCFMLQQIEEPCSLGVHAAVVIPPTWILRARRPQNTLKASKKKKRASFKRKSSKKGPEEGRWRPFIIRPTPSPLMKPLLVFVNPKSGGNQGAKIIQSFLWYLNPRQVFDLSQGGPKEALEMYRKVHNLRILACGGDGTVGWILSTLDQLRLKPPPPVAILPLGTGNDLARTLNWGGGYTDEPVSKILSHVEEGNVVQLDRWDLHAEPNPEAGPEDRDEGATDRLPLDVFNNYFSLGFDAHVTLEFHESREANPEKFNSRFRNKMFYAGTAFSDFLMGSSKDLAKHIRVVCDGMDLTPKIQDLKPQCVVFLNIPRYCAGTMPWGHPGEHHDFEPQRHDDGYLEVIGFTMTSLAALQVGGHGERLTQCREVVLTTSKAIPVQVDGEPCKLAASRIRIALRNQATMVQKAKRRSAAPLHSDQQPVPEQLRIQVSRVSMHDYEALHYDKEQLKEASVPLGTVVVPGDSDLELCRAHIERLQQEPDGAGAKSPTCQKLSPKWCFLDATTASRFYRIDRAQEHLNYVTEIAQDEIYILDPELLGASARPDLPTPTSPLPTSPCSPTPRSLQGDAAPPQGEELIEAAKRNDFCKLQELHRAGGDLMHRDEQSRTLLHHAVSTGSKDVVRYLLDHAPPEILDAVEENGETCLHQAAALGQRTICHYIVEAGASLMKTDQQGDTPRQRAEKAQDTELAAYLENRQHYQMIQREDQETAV

For `CC[C@H]1CN(C(C)c2ccc(C)cc2C(F)(F)F)[C@H](CC)CN1c1cc(=O)n(C)c2cn(CC#N)nc12` (single isomer, unassigned) [Compound A115a], the IC50 at DGKζ and against DGKα was over 10000 nM throughout.
For `CC[C@H]1CN(C(C)c2ccc(C)cc2C(F)(F)F)[C@H](CC)CN1c1cc(=O)n(C)c2cn(CC#N)nc12` (single isomer, unassigned) [Compound A115b], the concentration for half-maximal inhibition (IC50) on DGKζ is 378 nM; against DGKα, 105000 nM.
For `CC[C@H]1CN(C(C)c2cnn(CC)c2C(F)(F)F)[C@H](CC)CN1c1cc(=O)n(C)c2cn(CC#N)nc12` (single isomer, unassigned) [Compound A119a] the same measures were 15 nM and 8090 nM.
For `CC[C@H]1CN(C(C)c2cnn(CC)c2C(F)(F)F)[C@H](CC)CN1c1cc(=O)n(C)c2cn(CC#N)nc12` (single isomer, unassigned) [Compound A119b] the same measures were 964 nM and 4560 nM.
The matching figures for `CC[C@H]1CN(C(C)c2ccc(C(N)=O)cc2)[C@H](CC)CN1c1cc(=O)n(C)c2cn(CC#N)nc12` (single isomer, unassigned) [Compound A120a]: 2930 nM and 176 nM.
As for `CC[C@H]1CN(C(C)c2ccc(C(N)=O)cc2)[C@H](CC)CN1c1cc(=O)n(C)c2cn(CC#N)nc12` (single isomer, unassigned) [Compound A120b], the IC50 at DGKζ is over 10000 nM; on DGKα, 2260 nM.
For `CC[C@H]1CN(C(C)c2cccc(CO)c2)[C@H](CC)CN1c1cc(=O)n(C)c2cn(CC#N)nc12` (single isomer, unassigned) [Compound A121a] the same measures were 3020 nM and 1300 nM.
With `CC[C@H]1CN(C(C)c2ccc(C)cc2)[C@H](CC)CN1c1cc(=O)n(C)c2cn(CC#N)nc12` (single isomer, unassigned) [Compound A127a], the half-inhibitory concentration (IC50) on DGKζ was found to be 84 nM; against DGKα, 37 nM.
For the compound `CC[C@H]1CN(C(C)c2ccc(C)cc2)[C@H](CC)CN1c1cc(=O)n(C)c2cn(CC#N)nc12` (single isomer, unassigned) [Compound A127b], the IC50 on DGKζ came to 3710 nM; on DGKα, 177 nM.
`CC[C@H]1CN(C(C)c2ccc(F)cc2F)[C@H](CC)CN1c1cc(=O)n(C)c2cn(CC#N)nc12` (single isomer, unassigned) [Compound A132a]: the values for the half-inhibitory concentration (IC50) at DGKζ and against DGKα were 5.9 nM and 8.9 nM, respectively.
In the case of `CC[C@H]1CN(C(C)c2ccc(F)cc2F)[C@H](CC)CN1c1cc(=O)n(C)c2cn(CC#N)nc12` (single isomer, unassigned) [Compound A132b], the half-maximal inhibitory concentration (IC50) at DGKζ is 1780 nM; against DGKα, 330 nM.
As for `CC[C@H]1CN(C(C)c2ccc(C(F)(F)F)nc2)[C@H](CC)CN1c1cc(=O)n(C)c2cn(CC#N)nc12` (single isomer, unassigned) [Compound A135a], the IC50 on DGKζ was found to be 97 nM; against DGKα it was 398 nM.
As to `CC[C@H]1CN(C(C)c2ccc(C(F)(F)F)nc2)[C@H](CC)CN1c1cc(=O)n(C)c2cn(CC#N)nc12` (single isomer, unassigned) [Compound A135b], the IC50 at DGKζ was 1300 nM; at DGKα it was 428 nM.
Turning to `CC[C@H]1CN(C(C)c2ccc3nccnc3c2)[C@H](CC)CN1c1cc(=O)n(CC(F)F)c2cn(CC#N)nc12` (single isomer, unassigned) [Compound A139a], the figures for the IC50 at DGKζ and on DGKα were 112 nM and over 10000 nM, respectively.
For `CC[C@H]1CN(C(C)c2ccc3nccnc3c2)[C@H](CC)CN1c1cc(=O)n(CC(F)F)c2cn(CC#N)nc12` (single isomer, unassigned) [Compound A139b] the same measures were 5740 nM and over 10000 nM.
Consider `CC[C@H]1CN(C2CCc3ccccc32)[C@H](CC)CN1c1cc(=O)n(C)c2cn(CC#N)nc12` (single isomer, unassigned) [Compound A149a], for which the 50% inhibitory concentration (IC50) at DGKζ came to 4160 nM; against DGKα, 4120 nM.
The matching figures for `CC[C@H]1CN(C2CCc3ccccc32)[C@H](CC)CN1c1cc(=O)n(C)c2cn(CC#N)nc12` (single isomer, unassigned) [Compound A149b]: 2250 nM and 191 nM.
For `CC[C@H]1CN(C(C)c2ccc(F)cc2OC)[C@H](CC)CN1c1cc(=O)n(CCO)c2cn(CC#N)nc12` (single isomer, unassigned) [Compound A153a] the same measures were 9340 nM and over 10000 nM.
For `CC[C@H]1CN(C(C)c2ccc(F)cc2OC)[C@H](CC)CN1c1cc(=O)n(CCO)c2cn(CC#N)nc12` (single isomer, unassigned) [Compound A153b], the half-inhibitory concentration (IC50) is 545 nM at DGKζ and over 10000 nM at DGKα.
For `CC[C@H]1CN(C(C)c2cnc3ccccc3n2)[C@H](CC)CN1c1cc(=O)n(C)c2cn(CC#N)nc12` (single isomer, unassigned) [Compound A155a] the same measures were 1380 nM and 728 nM.
`CC[C@H]1CN(C(C)c2cnc3ccccc3n2)[C@H](CC)CN1c1cc(=O)n(C)c2cn(CC#N)nc12` (single isomer, unassigned) [Compound A155b]: the IC50 on DGKζ stood at 7.6 nM; on DGKα, 32 nM.
The matching figures for `CC[C@@H]1CN(c2cc(=O)n(C)c3cn(CC#N)nc23)CCN1C(C)c1ccc2nccnc2c1` (single isomer, unassigned) [Compound A161a]: over 10000 nM and over 10000 nM.
For the compound `CC[C@@H]1CN(c2cc(=O)n(C)c3cn(CC#N)nc23)CCN1C(C)c1ccc2nccnc2c1` (single isomer, unassigned) [Compound A161b], the IC50 on DGKζ is 93 nM; against DGKα it was 78200 nM.
The matching figures for `CC[C@@H]1CN(c2c(Cl)c(=O)n(C)c3cn(CC#N)nc23)CCN1C(C)c1ccc2nccnc2c1` (single isomer, unassigned) [Compound A162b]: 1050 nM and over 10000 nM.
Consider `CC[C@H]1CN(C(C)c2ccc(F)cc2OC(F)F)[C@H](CC)CN1c1cc(=O)n(C)c2cn(CC#N)nc12` (single isomer, unassigned) [Compound A171a], for which the half-inhibitory concentration (IC50) on DGKζ amounted to 65 nM; on DGKα, 8340 nM.
The matching figures for `CC[C@H]1CN(C(C)c2ccc(F)cc2OC(F)F)[C@H](CC)CN1c1cc(=O)n(C)c2cn(CC#N)nc12` (single isomer, unassigned) [Compound A171b]: 1360 nM and over 10000 nM.
The matching figures for `CC[C@H]1CN(C(C)c2ccc(F)cc2C(F)F)[C@H](CC)CN1c1cc(=O)n(C)c2cn(CC#N)nc12` (single isomer, unassigned) [Compound A172b]: 14 nM and 20400 nM.
For `COC(=O)C1CN(c2cc(=O)n(C)c3cn(CC#N)nc23)CCN1[C@@H](C)c1ccc2nccnc2c1` (single isomer, unassigned) [Compound A173a] the same measures were 502 nM and over 10000 nM.
On to `COC(=O)C1CN(c2cc(=O)n(C)c3cn(CC#N)nc23)CCN1[C@H](C)c1ccc2nccnc2c1` (single isomer, unassigned) [Compound A173b], for which the IC50 at DGKζ and against DGKα was over 10000 nM throughout.
Take `CC[C@@H]1CN(c2cc(=O)[nH]c3cn(CC#N)nc23)[C@@H](C)CN1C(C)c1ccc2nccnc2c1` (single isomer, unassigned) [Compound A177a]: the IC50 at DGKζ came out at 70 nM; at DGKα it was 8210 nM.
For `CC[C@@H]1CN(c2c(Br)c(=O)n(C)c3cn(CC#N)nc23)CCN1C(C)c1ccc2nccnc2c1` (single isomer, unassigned) [Compound A179b] the same measures were over 10000 nM and over 10000 nM.
The matching figures for `CC[C@H]1CN(C(C)c2ccc(OC(F)F)nc2)[C@H](CC)CN1c1cc(=O)n(C)c2cn(CC#N)nc12` (single isomer, unassigned) [Compound A180a]: 15 nM and 730 nM.
With `CC[C@@H]1CN(c2nc(=O)[nH]c3cn(CC#N)nc23)[C@@H](C)CN1C(C)c1ccc2nccnc2c1` (single isomer, unassigned) [Compound A183a], the IC50 on DGKζ came out at 110 nM; at DGKα, 7740 nM.
Consider `CC[C@@H]1CN(c2nc(=O)[nH]c3cn(CC#N)nc23)[C@@H](C)CN1C(C)c1ccc2nccnc2c1` (single isomer, unassigned) [Compound A183b], for which the results for the half-inhibitory concentration (IC50) at DGKζ and on DGKα were 2080 nM and over 10000 nM, respectively.
The matching figures for `CC[C@H]1CN(C(C)c2nc3cccnc3n2CC)[C@H](CC)CN1c1cc(=O)n(C)c2cn(CC#N)nc12` (single isomer, unassigned) [Compound A185a]: over 10000 nM and over 10000 nM.
